Marks after values point to notes of the source that are not given here.
Tests used:
[1] = test system: human nasopharyngeal carcinoma cell line CNE-2; test: MTT cell growth inhibition, CNE-2; assay type: cell-based; conditions: Homo sapiens; CNE-2, MTT assay, 72 h; read-out: IC50, growth of tumor cell line
Text: (§3) Experimental method: Cell lines (human non-small-cell lung cancer cell line A549, human colon cancer cell line LOVO, human nasopharyngeal carcinoma cell line CNE-2, human liver cancer cell line HepG2, human cervical carcinoma cell line Hela, human breast cancer cell lines MCF-7 and MDA-MB-231, human gastric carcinoma cell line NCI-N87, human prostatic cancer cell lines PC-3 and DU145, human leukemia cell line K562, human melanoma cell line A375, human neuroblastoma cell line SH-SY5H, human promyelocytic leukemia cell line HL-60, 5-FU-resistant human hepatocellular carcinoma cell line BEL-7402/5-Fu, doxorubicin-resistant hepatocellular carcinoma cell line HepG2/ADM, doxorubicin-resistant human breast cancer cell lines MCF-7/ADR) at logarithmic phase were resuspended in RPMI 1640 medium (containing 10% fetal bovine serum, 100 U/mL penicillin-streptomycin). Then, 100 μL of cells (cell concentration was 5×10^5/mL) were seeded into 96 wells plate. After 24 h incubation at 37° C. with 5% CO2, tested compounds were added (the control group without compound) for an additional 72 h incubation. After that, 30 μL of MTT [3-(4,5-Dimethylthiazol-2-yl)-2,5-diphenyltetrazolium bromide] solution (5 mg/mL) was added into each well and incubated for another 4 h at 37° C. and then the formazan crystals were solubilized with 100 μL DMSO. Finally, absorbance of each well was determined at 570 nm by a microplate reader (Thermo).
(§4) The concentration required to inhibit cell growth by 50% (IC50) was calculated from survival curves.

MDA-MB-231 xenografts = MDA-MB-231 xenografts in nude mice; assay type: in vivo, BALB/nu/nu mice; conditions: MDA-MB-231 xenograft nude mice
Experimental: (§1) Experimental method: The MDA-MB-231 cells at logarithmic phase were digested and washed twice with PBS. Then, 100 μL cells (1×10^7) were inoculated subcutaneously on the backs of female BALB/nu/nu mice. After tumors grew to 70˜100 mm^3, the mice were divided randomly into saline group (control group), vinca alkaloids groups (VLB, CCRB, CCFN, CCXJ) and vinca alkaloid derivatives groups (JJ-CCJ, BX-CCJ, JJ-CCRB, BX-CCRB, JJ-CCFN, BX-CCFN, JJ-CCXJ and BX-CCXJ), with six mice per group. 1 mg/kg drugs were injected intraperitoneally every two days, meanwhile body weight and tumor sizes were measured. Experiment was ended after 8 times of drug administration, then tumor and organs were stripped. Tumor volumes were measured using the following formula: V=½(ab^2), whereas a refers to the longest diameter and b is the shortest diameter.

[2] = test system: human breast cancer cell line MDA-MB-231; test: MTT cell growth inhibition, MDA-MB-231; assay type: cell-based; conditions: Homo sapiens; MDA-MB-231, MTT assay, 72 h; read-out: IC50, growth of tumor cell line
[3] = test system: doxorubicin-resistant hepatocellular carcinoma cell line HepG2/ADM; test: MTT cell growth inhibition, HepG2/ADM; assay type: cell-based, human; conditions: Homo sapiens, MTT assay, 72 h, read-out: IC50, growth of tumor cell line
Text: as §3, §4

[4] = test system: human prostatic cancer cell line DU145; test: MTT cell growth inhibition, DU-145; assay type: cell-based; conditions: Homo sapiens; DU-145, MTT assay, 72 h; read-out: IC50, growth of tumor cell line
Text: as §3, §4

[5] = test system: doxorubicin-resistant human breast cancer cell lines MCF-7/ADR; test: MTT cell growth inhibition, MCF-7/ADR; assay type: cell-based; conditions: Homo sapiens, NCI/ADR-RES, MTT assay, 72 h, read-out: IC50, growth of tumor cell line
Text: as §3, §4

[6] = test system: human non-small-cell lung cancer cell line A549; test: MTT cell growth inhibition, A549; assay type: cell-based; conditions: Homo sapiens; A549, MTT assay, 72 h; read-out: IC50, growth of tumor cell line
[7] = test system: human colon cancer cell line LOVO; test: MTT cell growth inhibition, LOVO; assay type: cell-based; conditions: Homo sapiens; LOVO (FAPα positive), MTT assay, 72 h; read-out: IC50, growth of tumor cell line
[8] = test system: human cervical carcinoma cell line Hela; test: MTT cell growth inhibition, Hela; assay type: cell-based; conditions: Homo sapiens, MTT assay, 72 h, read-out: IC50, growth of tumor cell line
HepG2 xenografts = HepG2 xenografts in nude mice; assay type: in vivo; conditions: HepG2 xenograft nude mice
Experimental: as §1
(§2) Tumor xenograft models of HepG2, LOVO, K562 and HL-60 cell lines were performed as the method described above.

K562 xenografts = K562 xenografts in nude mice; assay type: in vivo; conditions: K562 xenograft nude mice
Experimental: as §1, §2

[9] = test system: human liver cancer cell line HepG2; test: MTT cell growth inhibition, HepG2; assay type: cell-based; conditions: Homo sapiens; HepG2, MTT assay, 72 h; read-out: IC50, growth of tumor cell line
Text: as §3, §4

[10] = test system: human leukemia cell line K562; test: MTT cell growth inhibition, K562; assay type: cell-based; conditions: Homo sapiens; K562, MTT assay, 72 h; read-out: IC50, growth of tumor cell line
Text: as §3, §4

[11] = test system: human promyelocytic leukemia cell line HL-60; test: MTT cell growth inhibition, HL-60; assay type: cell-based; conditions: Homo sapiens; HL-60, MTT assay, 72 h; read-out: IC50, growth of tumor cell line
[12] = test system: human breast cancer cell line MCF-7; test: MTT cell growth inhibition, MCF-7; assay type: cell-based; conditions: Homo sapiens, MCF7; MCF-7, MTT assay, 72 h; read-out: IC50, growth of tumor cell line
LOVO xenografts = LOVO xenografts in nude mice; assay type: in vivo; conditions: LOVO xenograft nude mice
Experimental: as §1, §2

HL-60 xenografts = HL-60 xenografts in nude mice; assay type: in vivo; conditions: HL-60 xenograft nude mice
Experimental: as §1, §2

[13] = test system: human prostatic cancer cell line PC-3; test: MTT cell growth inhibition, PC-3; assay type: cell-based; conditions: Homo sapiens; PC-3, MTT assay, 72 h; read-out: IC50, growth of tumor cell line
Text: as §3, §4

[14] = test system: human neuroblastoma cell line SH-SY5H; test: MTT cell growth inhibition, SH-SY5H; assay type: cell-based; conditions: Homo sapiens, Neuroblastoma cell, MTT assay, 72 h, read-out: IC50, growth of tumor cell line
[15] = test system: 5-FU-resistant human hepatocellular carcinoma cell line BEL-7402/5-Fu; test: MTT cell growth inhibition, BEL-7402/5-Fu; assay type: cell-based; conditions: Homo sapiens, Bel7402/5-FU, MTT assay, 72 h, read-out: IC50, growth of tumor cell line
Text: as §3, §4

[16] = test system: human melanoma cell line A375; test: MTT cell growth inhibition, A375; assay type: cell-based; conditions: Homo sapiens, A-375; A375, MTT assay, 72 h; read-out: IC50, growth of tumor cell line
[17] = test system: human gastric carcinoma cell line NCI-N87; test: MTT cell growth inhibition, NCI-N87; assay type: cell-based; conditions: Homo sapiens; NCI-N87, MTT assay, 72 h; read-out: IC50, growth of tumor cell line
Text: as §3, §4

[18] = MTT cytotoxicity on normal cells, HUVEC; conditions: human, HUVEC (human umbilical vein endothelial cells)
Experimental: (§5) Then, 100 μL of cells (cell concentration was 5×10^5/mL) were seeded into 96 wells plate. After 24 h incubation at 37° C. with 5% CO2, tested compounds were added (the control group without compound) for an additional 72 h incubation. After that, 30 μL of MTT [3-(4,5-Dimethylthiazol-2-yl)-2,5-diphenyltetrazolium bromide] solution (5 mg/mL) was added into each well and incubated for another 4 h at 37° C. and then the formazan crystals were solubilized with 100 μL DMSO. Finally, absorbance of each well was determined at 570 nm by a microplate reader (Thermo).
(§6) The standard curve was drew with compound concentrations as the abscissa and cell growth inhibition rates as the ordinate. The concentration required to inhibit cell growth by 50% (IC50) was calculated from survival curves.
(§7) Experimental method: In vitro cytotoxicities of vinca alkaloids, hydrazinolyzed vinca alkaloids and vinca alkaloid dipeptide derivatives on human normal liver cells LO2 and human umbilical vein endothelial cells HUVEC were detected according to the method of Example 2.

[19] = MTT cytotoxicity on normal cells, LO2; conditions: human, LO2 cells (human normal liver cells)
Experimental: as §5, §6, §7

[20] = 1 mg/kg i.p. every two days, 8 administrations

SMILES | IC50 [1] [nM] | IC50 [2] [nM] | IC50 [3] [nM] | IC50 [4] [nM] | IC50 [5] [nM] | IC50 [6] [nM] | IC50 [7] [nM] | IC50 [8] [nM] | IC50 [9] [nM] | IC50 [10] [nM] | IC50 [11] [nM] | IC50 [12] [nM] | IC50 [13] [nM] | IC50 [14] [nM] | IC50 [15] [nM] | IC50 [16] [nM] | IC50 [17] [nM] | also measured
CC[C@]1(O)C[C@@H]2CN(CCc3c([nH]c4ccccc34)[C@@](C(=O)OC)(c3cc4c(cc3OC)N[C@H]3[C@@](O)(C(=O)NN)[C@H](O)[C@]5(CC)C=CCN6CC[C@]43[C@@H]65)C2)C1 [JJ-CCXJ, hydrazinolyzed vincristine] | 8.37 ± 2.7 | 7.37 ± 1.18 | 44.9 ± 3.67 | 18.4 ± 3.67 | 63.2 ± 7.74 | 4.34 ± 0.42 | 24.3 ± 1.09 | 23.6 ± 2.97 | 12.3 ± 1.96 | 12.1 ± 1.67 | 32.5 ± 3.51 | 26.9 ± 4.38 | 27.1 ± 2.18 | 18.7 ± 2.54 | 106 ± 5.87 | 15.6 ± 2.38 | 10.7 ± 1.78 | Anti-tumor rate (%) (MDA-MB-231 xenografts; [20]): 75.86** %; Body weight (g) Post-dose (MDA-MB-231 xenografts; [20]): 17.3 ± 1.2 g; Tumor weight (MDA-MB-231 xenografts; [20]): 0.63 ± 0.15 g; Body weight (g) Pre-dose (MDA-MB-231 xenografts; before dosing): 21.1 ± 2.5 g; Anti-tumor rate (%) (HepG2 xenografts; 1 mg/kg): 79.21** %; Body weight (g) Post-dose (HepG2 xenografts; 1 mg/kg): 17.8 ± 0.9 g; Tumor weight (HepG2 xenografts; 1 mg/kg): 0.53 ± 0.12 g; Body weight (g) Pre-dose (HepG2 xenografts; before dosing): 22.0 ± 2.1 g; Anti-tumor rate (%) (K562 xenografts; 1 mg/kg): 60.12** %; Body weight (g) Post-dose (K562 xenografts; 1 mg/kg): 17.1 ± 0.3 g; Tumor weight (K562 xenografts; 1 mg/kg): 0.67 ± 0.22 g; Body weight (g) Pre-dose (K562 xenografts; before dosing): 22.4 ± 1.7 g; Anti-tumor rate (%) (LOVO xenografts; 1 mg/kg): 73.52** %; Body weight (g) Post-dose (LOVO xenografts; 1 mg/kg): 17.5 ± 1.3 g; Tumor weight (LOVO xenografts; 1 mg/kg): 0.76 ± 0.16 g; Body weight (g) Pre-dose (LOVO xenografts; before dosing): 22.9 ± 2.3 g; Anti-tumor rate (%) (HL-60 xenografts; 1 mg/kg): 59.62** %; Body weight (g) Post-dose (HL-60 xenografts; 1 mg/kg): 16.3 ± 0.6 g; Tumor weight (HL-60 xenografts; 1 mg/kg): 0.84 ± 0.13 g; Body weight (g) Pre-dose (HL-60 xenografts; before dosing): 19.7 ± 1.5 g
CC[C@]12C=CCN3CC[C@@]4(c5cc([C@@]6(C(=O)OC)C[C@@H]7C[C@@H](C(C)(F)F)CN(Cc8c6[nH]c6ccccc86)C7)c(OC)cc5N(C)[C@H]4[C@@](O)(C(=O)OC)[C@@H]1OC(C)=O)[C@@H]32 [Vinflunine, reference compound] | 67.4 ± 3.42 | 61.3 ± 7.44 | 67.1 ± 4.39 | 22.3 ± 1.67 | 154 ± 3.95 | 137 ± 4.1 | 146 ± 7.21 | 56.7 ± 4.47 | 32.1 ± 2.17 | 19.3 ± 2.48 | 41.8 ± 6.85 | 77 ± 2.74 | 31.1 ± 5.34 | 52.4 ± 6.81 | 45.7 ± 3.98 | 39.8 ± 5.29 | 57.5 ± 3.95 | –
CCC1=C[C@@H]2CN(C1)Cc1c([nH]c3ccccc13)[C@@](C(=O)OC)(c1cc3c(cc1OC)N(C)[C@H]1[C@@](O)(C(=O)OC)[C@H](OC(C)=O)[C@]4(CC)C=CCN5CC[C@]31[C@@H]54)C2 [Vinorelbine, reference compound] | 9.03 ± 0.35 | 39.7 ± 5.79 | 24.4 ± 3.82 | 19.9 ± 0.57 | – | 14.5 ± 1.07 | 7.86 ± 0.16 | 11.4 ± 1.04 | 8.34 ± 0.53 | 12.2 ± 0.54 | 8.68 ± 1.35 | 49.5 ± 2.01 | 23.7 ± 4.31 | 4.78 ± 0.84 | 36.1 ± 4.78 | 5.64 ± 0.95 | 35.8 ± 6.57 | IC50 at 72 h [18]: 1.13 ± 0.56 nM; IC50 at 72 h [19]: 0.97 ± 0.08 nM

From patent publication US10377774B2 (JINAN UNIVERSITY, priority 2013, dated 2019)
